According to ChEMBL document CHEMBL1138646, “Carbonic anhydrase inhibitors: inhibition of the membrane-bound human isozyme IV with anions” (Bioorg Med Chem Lett, 2004):
Several values for one entry are separate records, joined by “and”; a condition that tells them apart may be missing. Identical values can stand only once.

Columns and labels:
Carbonic anhydrase 9 = Carbonic anhydrase 9 (Homo sapiens, UniProt Q16790)
Description: Inhibition constant of anion against human carbonic anhydrase isozyme hCA IX

Carbonic anhydrase 4 [1] = biological target: T1, Carbonic anhydrase 4 (Homo sapiens, UniProt P22748)
T1 sequence (P22748 whole entry): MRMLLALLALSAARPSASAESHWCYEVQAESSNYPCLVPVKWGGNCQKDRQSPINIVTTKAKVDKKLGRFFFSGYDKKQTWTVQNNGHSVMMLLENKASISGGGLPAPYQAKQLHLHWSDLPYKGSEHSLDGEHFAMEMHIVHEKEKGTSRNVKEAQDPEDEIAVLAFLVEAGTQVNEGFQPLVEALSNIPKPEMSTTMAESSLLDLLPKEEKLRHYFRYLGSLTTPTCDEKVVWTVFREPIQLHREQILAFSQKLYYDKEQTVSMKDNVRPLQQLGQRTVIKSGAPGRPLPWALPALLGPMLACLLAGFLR
Description: Inhibition constant of anion against human carbonic anhydrase isozyme hCA IV

Carbonic anhydrase V [2] = biological target: T2, Carbonic anhydrase V (Homo sapiens, UniProt Q9Y2D0+P35218); assay type: protein assay
Description: Inhibition constant of anion against human carbonic anhydrase isozyme hCA V

Carbonic anhydrase V [3] = biological target: T2, Carbonic anhydrase V; test: Inhibition constant against human carbonic anhydrase isozyme hCA V; assay type: protein assay
Carbonic anhydrase 4 [4] = biological target: T1, Carbonic anhydrase 4; test: Inhibition constant against human carbonic anhydrase isozyme hCA IV

SMILES	Ki (Carbonic anhydrase 9) [mM]	Ki (Carbonic anhydrase 4 [1])	Ki (Carbonic anhydrase V [2]) [mM]	Ki (Carbonic anhydrase V [2]; read-out: Ki)	Ki (Carbonic anhydrase V [3]) [mM]	Ki (Carbonic anhydrase 4 [4]) [mM]
Cl [HYDROCHLORIC ACID]	33	0.09 mM	156	–	–	–
O=NO [NITROUS ACID]	–	30.8 mM	–	16 mM	–	–
NS(=O)(=O)O [SULFAMATE]	–	–	–	–	0.12	0.00093
S [HYDROGEN SULFIDE]	0.007	3.9 mM	0.02	–	–	–
O=S(=O)(O)O [SULFURIC ACID]	–	9 mM	680	–	–	–
F [FLUORIDE ION]	48	0.07 mM	–	241 mM	–	–
I [IODIDE]	7	0.08 mM	25	–	–	–
OB(O)c1ccccc1 [PHENYLBORONIC ACID]	–	–	–	–	4.5	0.00088
O=[N+]([O-])O [NITRIC ACID]	46	58.7 mM	16	–	–	–
N#CS [THIOCYANIC ACID]	0.13	39 mM	–	0.74 mM	–	–
O=C(O)O [BICARBONATE]	13	6.6 mM and 5.7 mM	–	82 mM and 95 mM	–	–
O=S(O)O [SULFUROUS ACID]	–	13.2 mM	–	65 mM	–	–
Br [BROMIDE]	16	0.09 mM	–	50 mM	–	–
N#CO [CYANATE]	0.04	0.61 mM	–	0.02 mM	–	–
